Measured values published in ChEMBL document CHEMBL3351956, “Design and synthesis of novel 1,2,3-triazole-pyrimidine hybrids as potential anticancer agents” (Eur J Med Chem, 2014).
pIC50: −log10 of the molar value.

How the values were obtained:
Assay type in all cases: functional, cell-based
[1] = Cytotoxicity against human EC109 cells assessed as inhibition of proliferation after 72 hrs by MTT assay; settings: ECa-109, 72 h
MCF7 = assay: Cytotoxicity against human MCF7 cells assessed as inhibition of proliferation after 72 hrs by MTT assay; settings: MCF7, 72 h
MGC-803 = assay: Cytotoxicity against human MGC803 cells assessed as inhibition of proliferation after 72 hrs by MTT assay; settings: MGC-803, 72 h
[2] = Cytotoxicity against mouse B16F10 cells assessed as inhibition of proliferation after 72 hrs by MTT assay; settings: B16-F10, 72 h

| Compound | pIC50 [1] | pIC50 (MCF7) | pIC50 (MGC-803) | pIC50 [2] |
| --- | --- | --- | --- | --- |
| O=c1[nH]cc(F)c(=O)[nH]1 [FLUOROURACIL] | 4.97 | 5.05 | 5.11 | 6.06 |
| COc1ccc(Nc2nc(SCc3cn(Cc4ccccc4Cl)nn3)nc(-c3ccc(C(C)C)cc3)c2C#N)cc1 | 5.45 | 4.99 | < 4.19 | 5.57 |
